{"source": "patent US6703395B2", "about": "“Cyclin dependent kinase inhibitor” (priority 1998, dated 2004)", "key": {"[1]": {"test_system": "Human T-lymphoblastic leukemia cell line CEM", "experiment": "MTT in vitro cytotoxicity assay, CEM", "type": "cell-based", "conditions": "72 hours incubation", "text": "(§1) One of the parameters used as the basis for colorimetric assays is the metabolic activity of viable cells. For example, a microtiter assay which uses the tetrazolium salt 3-[4,5-Dimethylthiazol-2-yl]-2,5-diphenyltetrazolium bromide; Thiazolyl blue (hereinafter MTT) is now widely used to quantitate cell proliferation and cytotoxicity, for instance, in drug screening programs and in chemosensitivity testing. Because tetrazolium salts are cleaved only by metabolically active cells, these assays detect viable cells exclusively. In the case of the MTT-assay, yellow soluble tetrazolium salt is reduced to colored water-insoluble formazan salt. After it is solubilized, the formazan formed can easily and rapidly be quantified in a conventional ELISA plate reader at 570 nm (maximum absorbance). The quantity of reduced formazan corresponds to number of vital cells in the culture. […]\n(§2) The cell suspensions that were prepared and diluted according to the particular cell type and the expected target cell density (2,500-30,000 cells per well based on cell growth characteristics) were added by pipet (80 μl) into 96 well microtiter plates. […] Usually, test compound were evaluated at six 4-fold dilutions. […] The optical density (OD) was measured at 540 nm with the Labsystem iEMS Reader MF (UK). […]"}, "[2]": {"test_system": "promyelocytic leukemia HL-60", "experiment": "MTT in vitro cytotoxicity assay, HL-60", "type": "cell-based, human", "text": "as §1, §2"}, "B16 melanoma [3]": {"test_system": "B16 melanoma", "experiment": "MTT in vitro cytotoxicity assay, B16", "type": "cell-based, mouse", "text": "as §1, §2"}, "B16F10 melanoma": {"test_system": "B16F10 melanoma", "experiment": "MTT in vitro cytotoxicity assay, B16F10", "type": "cell-based, mouse", "text": "as §1, §2"}, "[4]": {"test_system": "human breast carcinoma cell line MCF-7", "experiment": "MTT in vitro cytotoxicity assay, MCF7", "type": "cell-based", "text": "as §1, §2"}, "[5]": {"test_system": "cervical carcinoma cells HELA", "experiment": "MTT in vitro cytotoxicity assay, HELA", "type": "cell-based", "conditions": "72 hours incubation", "text": "as §1, §2"}, "[6]": {"test_system": "mouse immortalized bone marrow macrophages B10A.4", "experiment": "MTT in vitro cytotoxicity assay, B10#4", "type": "cell-based", "text": "as §1, §2"}, "[7]": {"test_system": "mouse immortalized bone marrow macrophages B2.4", "experiment": "MTT in vitro cytotoxicity assay, B2#4", "type": "cell-based", "conditions": "72 hours incubation", "text": "as §1, §2"}, "U937": {"test_system": "U937", "experiment": "MTT in vitro cytotoxicity assay, U937", "type": "cell-based", "text": "(§3) One of the parameters used as the basis for colorimetric assays is the metabolic activity of viable cells. For example, a microtiter assay which uses the tetrazolium salt 3-[4,5-Dimethylthiazol-2-yl]-2,5-diphenyltetrazolium bromide; Thiazolyl blue (hereinafter MTT) is now widely used to quantitate cell proliferation and cytotoxicity, for instance, in drug screening programs and in chemosensitivity testing. Because tetrazolium salts are cleaved only by metabolically active cells, these assays detect viable cells exclusively. In the case of the MTT-assay, yellow soluble tetrazolium salt is reduced to colored water-insoluble formazan salt. After it is solubilized, the formazan formed can easily and rapidly be quantified in a conventional ELISA plate reader at 570 nm (maximum absorbance). The quantity of reduced formazan corresponds to number of vital cells in the culture.\nas §2, with “plates. Inoculates were allowed a preincubation period of 24 hours at 37° C. and 5% CO2 for stabilization.” for “plates.”"}, "L1210 leukemia": {"test_system": "L1210 leukemia", "experiment": "MTT in vitro cytotoxicity assay, L1210", "type": "cell-based, mouse", "text": "as §1, §2"}, "P388D1 leukemia [8]": {"test_system": "P388D1 leukemia", "experiment": "MTT in vitro cytotoxicity assay, P388D1", "type": "cell-based, mouse", "text": "as §1, §2"}, "mouse fibroblasts NIH3T3": {"test_system": "mouse fibroblasts NIH3T3", "experiment": "MTT in vitro cytotoxicity assay, NIH3T3", "type": "cell-based", "text": "as §1, §2"}, "normal human lymphocytes": {"test_system": "normal human lymphocytes", "experiment": "MTT in vitro cytotoxicity assay, lymphocytes", "type": "cell-based", "conditions": "72 hours incubation", "text": "as §3\nas §2, with “plates. Inoculates were allowed a preincubation period of 24 hours at 37° C. and 5% CO2 for stabilization.” for “plates.”"}, "tumor cell lines": {"test_system": "tumor cell lines", "experiment": "MTT in vitro cytotoxicity, panel of tumor cell lines", "type": "cell-based", "conditions": "summary of Table 1", "text": "as §1, §2"}, "P388D1 leukemia [9]": {"test_system": "P388D1 leukemia", "experiment": "In vivo antitumor activity, intraperitoneally transplanted P388D1 leukemia", "conditions": "DBA-2 mice, 1 mg 4x daily for 7 days"}, "B16 melanoma [10]": {"test_system": "B16 melanoma", "experiment": "In vivo antitumor activity, subcutaneously inoculated B16 melanoma", "conditions": "C57BL-10 mice, 1 mg subcutaneously 4x daily for 7 days"}, "[11]": {"conditions": "mouse", "protocol": "in vivo anti-cancer activity assays: water insoluble compounds: 50% DMSO, 10 mM HCl in saline.\nCells were trypsinized, washed in PBS and suspended in PBS with 0.5% bovine serum albumin. 0.5 miilion cells from this suspension was applied subcutaneously to C57BL-10 mice. […] The compounds (1 mg) were applied subcutaneously 4× daily, for 7 days.\nCells were scraped, washed in PBS and suspended in PBS with 0.5% bovine serum albumin. 0.5 million cells from this suspension was applied intraperitoneally to DBA-2 mice. […] The compounds (1 mg) were applied subcutaneously 4× daily, for 7 days."}, "CEM cells [12]": {"test_system": "CEM cells", "experiment": "Apoptosis by phase contrast and electron microscopy", "type": "cell-based, human", "conditions": "50 μm, 8 hours (FIG. 3)"}, "CEM cells [13]": {"test_system": "CEM cells", "experiment": "Apoptosis and cell cycle analysis by FACS (DNA content)", "type": "cell-based, human", "conditions": "50 μm (FIG. 4), method 70 μM, 3-24 hours", "description": "Cells (1×10^6/ml) were cultured in 6-well plates with or without 70 μM concentration of test compound at 37° C. and 5% CO2 for 3-24 hours. Following incubation, cells were pelleted, washed in Hank's buffered salt solution and fixed in 96% ethanol overnight at −20° C. Low molecular weight apoptotic DNA was extracted in citrate buffer. RNA was cleaved using RNAse (50 mg/ml)."}}}
{"smiles": "CC(C)=CCNc1ncnc2nc[nH]c12", "note": "[IP, isopentenyladenine]", "values": [{"measurement": "IC50", "setting": "[1]", "result": 169, "unit": "µM"}, {"measurement": "IC50", "setting": "[2]; 72 hours incubation", "result": 157, "unit": "µM"}, {"measurement": "IC50", "setting": "B16 melanoma [3]; 72 hours incubation", "result": 267, "unit": "µM"}, {"measurement": "IC50", "setting": "B16F10 melanoma; 72 hours incubation", "result": 267, "unit": "µM"}, {"measurement": "IC50", "setting": "[4]; 72 hours incubation", "result": 267, "unit": "µM"}, {"measurement": "IC50", "setting": "[5]", "result": 267, "unit": "µM"}, {"measurement": "IC50", "setting": "[6]; 72 hours incubation", "result": 267, "unit": "µM"}, {"measurement": "IC50", "setting": "[7]", "result": 267, "unit": "µM"}, {"measurement": "IC50", "setting": "U937; 72 hours incubation", "result": 267, "unit": "µM"}, {"measurement": "IC50", "setting": "L1210 leukemia; 72 hours incubation", "result": 267, "unit": "µM"}, {"measurement": "IC50", "setting": "P388D1 leukemia [8]; 72 hours incubation", "result": 267, "unit": "µM"}, {"measurement": "IC50", "setting": "mouse fibroblasts NIH3T3; 72 hours incubation", "result": 267, "unit": "µM"}, {"measurement": "IC50", "setting": "normal human lymphocytes", "result": 267, "unit": "µM"}, {"measurement": "toxicity to tumor cells (in words)", "setting": "tumor cell lines", "result": "did not show significant toxicity"}, {"measurement": "in vivo activity, P388D1 leukemia model (survival)", "setting": "P388D1 leukemia [9]", "result": "no activity"}, {"measurement": "in vivo activity, B16 melanoma model (medium survival time)", "setting": "B16 melanoma [10]", "result": "no activity"}, {"measurement": "toxicity in vivo / tissue necrosis at the site of application", "setting": "[11]", "result": "no activity and toxicity"}]}
{"smiles": "Cn1cnc2c(NCc3ccccc3)nc(NCCO)nc21", "note": "[OC, 2-(2-hydroxyethylamino)-6-benzylamino-9-methylpurine]", "values": [{"measurement": "IC50", "setting": "[1]; Homo sapiens", "result": 20.7, "unit": "µM"}, {"measurement": "IC50", "setting": "[2]; Homo sapiens, HL-60, 72 hours incubation", "result": 28.9, "unit": "µM"}, {"measurement": "IC50", "setting": "B16 melanoma [3]; Mus musculus, B16, 72 hours incubation", "result": 50.4, "unit": "µM"}, {"measurement": "IC50", "setting": "B16F10 melanoma; Mus musculus, B16-F10, 72 hours incubation", "result": 20.6, "unit": "µM"}, {"measurement": "IC50", "setting": "[4]; Homo sapiens, MCF7, 72 hours incubation", "result": 30.5, "unit": "µM"}, {"measurement": "IC50", "setting": "[5]; Homo sapiens, HeLa", "result": 100, "unit": "µM"}, {"measurement": "IC50", "setting": "[6]; Mus musculus, B104, 72 hours incubation", "result": 20.3, "unit": "µM"}, {"measurement": "IC50", "setting": "[7]; Mus musculus, Bone marrow macrophage", "result": 8.1, "unit": "µM"}, {"measurement": "IC50", "setting": "U937; Homo sapiens, U-937, 72 hours incubation", "result": 63.8, "unit": "µM"}, {"measurement": "IC50", "setting": "L1210 leukemia; Mus musculus, L1210, 72 hours incubation", "result": 23.5, "unit": "µM"}, {"measurement": "IC50", "setting": "P388D1 leukemia [8]; Mus musculus, P388D1, 72 hours incubation", "result": 14.5, "unit": "µM"}, {"measurement": "IC50", "setting": "mouse fibroblasts NIH3T3; Mus musculus, NIH3T3, 72 hours incubation", "result": 267, "unit": "µM"}, {"measurement": "IC50", "setting": "normal human lymphocytes; Homo sapiens, Lymphocyte", "result": 267, "unit": "µM"}, {"measurement": "toxicity to tumor cells (in words)", "setting": "tumor cell lines", "result": "moderately effective"}, {"measurement": "in vivo activity, P388D1 leukemia model (survival)", "setting": "P388D1 leukemia [9]", "result": "significant in vivo activity"}, {"measurement": "in vivo activity, B16 melanoma model (medium survival time)", "setting": "B16 melanoma [10]", "result": "significant in vivo activity"}, {"measurement": "apoptosis by phase contrast / electron microscopy", "setting": "CEM cells [12]", "result": "apoptosis had occurred"}]}
{"smiles": "CCC(CO)Nc1nc(NCc2ccccc2)c2ncn(C(C)C)c2n1", "note": "(stereo not drawn) [ROSC, 2-[(1-ethyl-2-hydroxyethyl)amino]-6-benzylamino-9-isopropylpurine]", "values": [{"measurement": "apoptosis by phase contrast / electron microscopy", "setting": "CEM cells [12]", "result": "apoptosis had occurred"}, {"measurement": "apoptosis by flow cytometric analysis of DNA content", "setting": "CEM cells [13]", "result": "Extensive apoptosis"}]}
